Assays:
conscious rat = experiment: Direct monitoring of aortic blood pressure and heart rate from conscious rats; assay type: in vivo; settings: doses 1, 3, 10, and 30 mg/kg
Description: A method for the direct monitoring of aortic blood pressure and heart rate from conscious rats
The continuous monitoring of pulsatile blood pressure from unrestrained conscious rats surgically equipped with polyethylene cannulas was accomplished by means of a computer assisted data capture scheme (CADCS). The basic elements of the methodology are the cannulation procedure and the CADCS. Method
Cannulation Procedure: Rats were anesthetized with Telazol (1:1 tiletamine HCI and zolazepam HCI; WU PD, Ann Arbor, MI) 20-40 mg/kg IM and the descending aorta exposed via a midline incision. Cannulus fabricated from polyethylene tubing (Clay Adams, Parsippany, NJ) were inserted into the aorta via an undersized puncture hole below the renal arteries. The puncture hole was made by a 23 G disposable needle with a section of the aorta clamped off above and below the puncture site. The cannulas, consisting of a PE100 (0.86 mm ID) body and a PE50 (0.58 mm ID) tip, were attached to a trocar, inserted through the psoas muscle, and passed subcutaneously along the midline of the back and externalized between the ears. The cannulas were anchored to the psoas muscle and between the scapulae (3-0 green braided suture; Deknatel, Queens Village, NY). The midline incision was closed in two steps (muscle first, skin second) using continuous over-and-over sutures (4-0 chronic; Ethicon, Somerville, NJ). Each rat was then given penicillin 30,000 units subcutaneously (Penicillin G Procaine Sterile Suspension; Parke-Davis, Detroit, MI).
The rats were fitted with a harness-spring-swivel assembly designed to protect the cannula and to provide the rat relative freedom of movement. The harnesses were fabricated from nylon hook and loop tape (Velcro, Manchester, NH) cemented to a metal plate to which spring wires (18-8 stainless steel, Paragon Spring; Chicago, IL) were attached to brass swivels (BRS/LVE, Bellville: MD). Each polyethylene cannula was channeled through a spring and connected through a swivel to a pressure transducer (Model P23Gb; Statham Instruments; Hato Rey, Puerto Rico) and an infusion pump (Sage model 234-7; Orion Research, Cambridge, MA) by means of PE100 tubing. While on test, each rat received a continuous slow infusion of heparinized saline solution […] or 40 units of heparin per 24-hour period) to prevent clot formation. Additional "flushes" of the cannula with heparinized saline were carriedd out when the aortic pulse pressure (systolic minus diastolic) was less than 25 mm Hg.
CADCS: The pulsatile blood pressure and heart rate of each of 32 rats was monitored every minute by means of two in-laboratory microcomputers communicating directly with a data concentrator computer. The data were first stored on the data concentrator disk and then transferred to a magnetic tape for analysis and report generation by the main research computer (Varian V-74 or IBM). The overall scheme involved modulating the primary signal from the pressure transducer, generating the primary data set of the one- minute values for systolic, diastolic, and mean blood pressures and heart rate by the in-lab microcomputer and the storage, analysis, and report generation by the main research computer.
The transducers were connected to analog signal conditioning modules. The modules provided a regulated excitation voltage for the transducers, amplification as required to interface the microprocessors and an active low pass filter to compensate for the pressure wave form distortion produced by the flexible, fluid filled, narrow lumened cannula. The distortion was 22-26 Hz and thus provided a reliable estimate of both systolic and diastolic blood pressure.
The microcomputers (one for each of two groups of 16 rats) were connected to the input components through the module interface units, an analog-to-digital converter for the pressure wave form signal and the digital inputs for the dose and event marker switches. […]

[1] = tested on: pentobarbital-anesthetized dog; experiment: Test for in vivo myocardial inotropic activity in anesthetized dog; settings: intravenous; for % Change Blood Pressure: aortic blood pressure; for % Change Myocardial Contractility: dP/dt of left ventricular blood pressure
Method: Test for in vivo myocardial inotropic activity in anesthetized dog This screen consists of determining the effects of increasing intravenous doses of compound on myocardial contractility (dP/dt mad of left ventricular blood pressure), heart rate and aortic blood pressure of the pentobarbital-anesthetized dog. Adult mongrel dogs of either sex are anesthetized with pentobarbital, 35 mg/kg, IV, and are subsequently maintained under anesthesia with a continuous infusion of pentabarbital, 3.5 mg/kg/hour. The trachea is intubated but the animals are permitted to breathe spontaneously. A cannula is inserted into the femoral vein for administrating test agents. A Millar catheter tip pressure transducer or a fluid filled catheter is inserted into the ascending aorta via the femoral artery for measuring aortic blood pressure. A Millar catheter tip pressure transducer is passed into the left ventricle via the left carotid artery for measuring left ventricular blood pressure. Needle electrodes are.placed subcutaneously for recording a lead II electrocardiogram (ECG). Left ventricular and aortic blood pressures are recorded on a strip chart recorder. Heart rate, using a . biotachometer triggered from the R wave of the ECG, and the first derivative of left ventricular blood pressure (dP/dt), obtained with a differentiator amplifier coupled to the corresponding pressure amplifier, are also recorded. A period of at least 30 minutes is utilized to obtain control data prior to administration of test compound. Depending on solubility, the compounds are dissolved in 0.9% saline solution or in dilute HCI or NaOH (0.1 or 1.0 N) and are diluted to volume with normal saline. Ethanol or dimethylacetamide can be used as solvents if adequate dilutions can be made. Appropriate vehicle controls are administered when needed. Each dose of the test compound is administered in volume of 0.1 ml/kg over a period of one minute.

SMILES | aortic blood pressure (conscious rat) | % Change Heart Rate ([1]; dose 0.01 mg/kg) | % Change Blood Pressure ([1]; dose 0.01 mg/kg) | % Change Myocardial Contractility ([1]; dose 0.01 mg/kg) | % Change Heart Rate ([1]; dose 0.03 mg/kg) | % Change Blood Pressure ([1]; dose 0.03 mg/kg) | % Change Myocardial Contractility ([1]; dose 0.03 mg/kg) | % Change Heart Rate ([1]; dose 0.10 mg/kg) | % Change Blood Pressure ([1]; dose 0.10 mg/kg) | % Change Myocardial Contractility ([1]; dose 0.10 mg/kg) | % Change Heart Rate ([1]; dose 0.31 mg/kg) | % Change Blood Pressure ([1]; dose 0.31 mg/kg) | % Change Myocardial Contractility ([1]; dose 0.31 mg/kg) | other results
O=c1ccc(-c2cccc(-n3ccnc3)c2)n[nH]1 [Example 14, 6-[3-(1H-Imidazol-1-yl)phenyl]-3(2H)-pyridazinone] | significant reduction |  |  |  |  |  |  |  |  |  |  |  |  | 
O=C1CCC(c2ccc(-n3cccc3)cc2)=NN1 [Example 11, 4,5-Dihydro-6-[4-(H-pyrrol-1-yl)phenyl]-3(2H)-pyridazinone] | significant reduction |  |  |  |  |  |  |  |  |  |  |  |  | 
O=c1ccc(-c2ccc(-n3ccnc3)cc2)n[nH]1 [Example 13a, 6-[4-(1H-Imidazol-1-yl)phenyl]-3(2H)-pyridazinone] |  | 0.0% | 0.0% | 3% | 6.0% | −1.5% | 15% | 16.0% | −6.0% | 40% | 32.0% | −9.0% | 78% | 
O=c1ccc(-c2ccc(-n3cnc4c3CCCC4)cc2)n[nH]1 [Example 15, 6-[4-(4,5,6,7-Tetrahydro-1H benzimidazol-1-yl)phenyl]-3(2H)-pyridazinone] | significant reduction |  |  |  |  |  |  |  |  |  |  |  |  | 
O=C1CCC(c2cccc(-n3ccnc3)c2)=NN1 [Example 6, 4,5-Dihydro-6-[3-(1-imidazol-1-yl)phenyl]-3(2H)-pyridazinone] | significant reduction | −2.0% | 1.0% | 6% |  |  |  | −1.0% | −1.0% | 36% |  |  |  | % Change Heart Rate ([1]; dose 0.30 mg/kg): 2.0%; % Change Blood Pressure ([1]; dose 0.30 mg/kg): −8.0%; % Change Myocardial Contractility ([1]; dose 0.30 mg/kg): 71%; % Change Heart Rate ([1]; dose 1.0 mg/kg): 11.0%; % Change Blood Pressure ([1]; dose 1.0 mg/kg): −20.0%; % Change Myocardial Contractility ([1]; dose 1.0 mg/kg): 114%
O=C1CCC(c2ccc(-n3cnc4c3CCCC4)cc2)=NN1 [Example 8, 4,5-Dihydro-6-[4-(4,5,6,7-tetrahydro-1H-benzimidazol-1-yl)phenyl]-3(2H)-pyridazinone] | significant reduction | −3.0% | −2.5% | 10% | −15.0% | −7.0% | 21% | −17.0% | −11.0% | 51% | −18.0% | −17.0% | 95% | % Change Heart Rate ([1]; dose 1.0 mg/kg): −7.0%; % Change Blood Pressure ([1]; dose 1.0 mg/kg): −27.0%; % Change Myocardial Contractility ([1]; dose 1.0 mg/kg): 127%
O=C1CCC(c2ccc(-n3ccnc3)cc2)=NN1 [Example 3a, 4,5-Dihydro-6-[4-(1H imidazol-1-yl)phenyl]-3(2H)-pyridazinone] |  | −4.0% | −2.0% | 9% | −4.0% | −6.0% | 32% | −1.0% | −10.5% | 57% | 2.0% | −21.5% | 87% | 
O=C1CCC(c2ccc(OCCn3ccnc3)cc2)=NN1 [Example 12, 4,5-Dihydro-6-[4-[2-(1H-imidazol-1-yl)ethoxy]phenyl]-3(2H)-pyridazinone] | significant reduction |  |  |  |  |  |  |  |  |  |  |  |  | 
O=C1CCC(c2ccc(-n3cnnc3)cc2)=NN1 [Example 10] | significant reduction |  |  |  |  |  |  |  |  |  |  |  |  | 
O=c1ccc(-c2ccc(OCCn3ccnc3)cc2)n[nH]1 [Example 16, 6-[4-[2-(1H Imidazol-1-yl)ethoxy]phenyl]-3(2H)-pyridazinone] | significant reduction |  |  |  |  |  |  |  |  |  |  |  |  | 
